According to patent publication US20210395313A1, “PEPTIDE PAC1 ANTAGONISTS” (AMGEN INC., priority 2017, published 2021):
Where a SMILES comes first, the peptide text is derived from it. Bridges are numbered along the chain shown (N, C = ends). Where no end group is shown, it is not given here.

How the values were obtained:
PAC1 = target: T1, PAC1 (Rattus norvegicus, UniProt P32215); experiment: Rat maxadilan-induced increase in blood flow (MIIBF) PD model, laser Doppler imaging; type: in vivo; details: for inhibition of maxadilan-induced increase in DBF: single bolus s.c., lowest dose of 0.3 mg/kg, 15 min prior to maxadilan, 45 min post peptide treatment; for inhibition of MIIBF (dermal blood flow): single bolus i.v., lowest dose of 0.1 mg/kg, 5 min prior to maxadilan, 35 min post peptide treatment
T1 construct: Naive male Sprague Dawley® rats aged 8-12 weeks at the time of the study were purchased from Charles River Laboratories; tissue Charles River Laboratories; host or cells: live male Sprague Dawley rats; dermal blood flow on abdominal skin
T1 sequence (P32215 20-523): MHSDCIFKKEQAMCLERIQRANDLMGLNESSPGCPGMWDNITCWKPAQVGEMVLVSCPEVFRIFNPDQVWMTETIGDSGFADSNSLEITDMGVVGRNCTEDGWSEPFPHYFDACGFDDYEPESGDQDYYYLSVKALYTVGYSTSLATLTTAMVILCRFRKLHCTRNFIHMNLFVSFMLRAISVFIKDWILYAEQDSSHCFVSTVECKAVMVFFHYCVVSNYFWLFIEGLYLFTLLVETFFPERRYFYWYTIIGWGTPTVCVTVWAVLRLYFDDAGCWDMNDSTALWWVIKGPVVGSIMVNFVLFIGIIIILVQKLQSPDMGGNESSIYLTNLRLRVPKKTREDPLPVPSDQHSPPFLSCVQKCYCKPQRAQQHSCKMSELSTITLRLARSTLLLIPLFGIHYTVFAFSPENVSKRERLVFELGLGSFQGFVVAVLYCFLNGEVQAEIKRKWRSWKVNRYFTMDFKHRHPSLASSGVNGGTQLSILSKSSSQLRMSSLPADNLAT
Procedure: PAC1 peptide antagonists were also evaluated in an in vivo pharmacodynamic model—a model of maxadilan-induced increase in blood flow.
Naive male Sprague Dawley® rats aged 8-12 weeks at the time of the study were purchased from Charles River Laboratories. Animals were group-housed in non-sterile, ventilated micro-isolator housing in Amgen Assessment and Accreditation of Laboratory Animal Committee (AAALAC)-accredited facility. Animals had ad libitum access to pelleted feed (Harlan Teklad 2020X, Indianapolis, IN) and water (on-site generated reverse osmosis) via automatic watering system.
All PAC1 peptides were tested in a rat maxadilan-induced increase in blood flow (MIIBF) pharmacodynamic (PD) model with a laser Doppler imaging. A dosing solution of maxadilan (Bachem, H6734.0500) was prepared fresh daily by diluted maxadilan stock solution (0.5 mg/mL) in 1× PBS to the final concentration of 0.5 μg/mL. All tested peptides were prepared in 1× PBS at different concentrations depend on the dose required for the experiment and given in a single bolus i.v. or s.c. injection. A laser Doppler imager (LDI-2, Moor Instruments, Ltd, Wilmington, Del.) was used to measure dermal blood flow (DBF) on the shaved skin of the rat abdomen with a low-power laser beam generated by a 633 nm helium-neon bulb. The measurement resolution was 0.2 to 2 mm, with scanning distances between the instrument aperture and the tissue surface of 30 cm. In this report, DBF was measured and expressed as % change from baseline [100×(individual post-CAP flux-individual baseline flux)/individual baseline flux] and further calculated to % Inhibition to quantify the magnitude of drug effect [Mean of vehicle % change from BL−individual drug treated rat % change from BL)/Mean of vehicle % change from BL].
On the test day, following anesthetization with propofol, the rat's abdominal area was shaved and each animal was placed in a supine position on a temperature-controlled circulating warm-water pad to maintain a stable body temperature during the study. After a 10 to 15 minute stabilization period, a rubber O-ring (0.925 cm inner diameter, O-Rings West, Seattle, Wash.) was placed on the rat abdomen without directly positioning it over a visible blood vessel while the rat placed in a supine position on a temperature-controlled circulating warm-water pad to maintain a stable body temperature during the study. After placement of an O-ring on the selected area, a baseline (BL) DBF measurement was taken. After the BL scan, PAC1 peptides were administrated either 5 min for i.v., or 15 min for s.c. then followed by 20 μL (in 0.5 μg/mL) intradermal injection of maxadilan at the center of the O-ring. The post-maxadilan DBF was measured at 30 min and the post peptides time was 35 min for i.v. and 45 min for s.c. respectively. The O-ring serves as an area of interest in which the DBF will be analyzed within the O-ring.
All DBF results were expressed as the mean±SEM. A one-way ANOVA followed by Dunnett's Multiple Comparison Test (MCT) was used to assess the statistical significance of PAC1 peptides effects relative to the vehicle within the study. A p<0.05 was used to determine significance between any two groups.

rat PAC1 receptor = target: T2, rat PAC1 receptor (Rattus norvegicus, UniProt P32215); experiment: LANCE Ultra cAMP accumulation antagonist assay in RG-2 cells; type: cell-based;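 further: RG-2 rat glioma cells endogenously expressing PAC1, test peptide preincubated 30 min, then PAC1 agonist added at its EC80 for 15 min, cAMP accumulation read by LANCE Ultra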
T2 construct: SHSY-5Y (human neuroblastoma cell line) and RG-2 (rat glioma cell line) cells endogenously express human and rat PAC1 receptors, respectively; endogenous in cells; host or cells: RG-2 rat glioma cells
T2 sequence (P32215 20-523): T1 sequence (P32215 20-523)

human PAC1 receptor = target: T3, human PAC1 receptor (Homo sapiens, UniProt P41586); experiment: LANCE Ultra cAMP accumulation antagonist assay in SHSY-5Y cells; type: cell-based;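 further: inhibition of cAMP accumulation evoked by PAC1 agonist at its EC80 in SHSY-5Y cells endogenously expressing receptor, 30 min preincubation then 15 min agonist, TR-FRET readout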
T3 construct: SHSY-5Y (human neuroblastoma cell line) and RG-2 (rat glioma cell line) cells endogenously express human and rat PAC1 receptors, respectively; endogenous in cells; host or cells: SHSY-5Y human neuroblastoma cells
T3 sequence (P41586 21-468): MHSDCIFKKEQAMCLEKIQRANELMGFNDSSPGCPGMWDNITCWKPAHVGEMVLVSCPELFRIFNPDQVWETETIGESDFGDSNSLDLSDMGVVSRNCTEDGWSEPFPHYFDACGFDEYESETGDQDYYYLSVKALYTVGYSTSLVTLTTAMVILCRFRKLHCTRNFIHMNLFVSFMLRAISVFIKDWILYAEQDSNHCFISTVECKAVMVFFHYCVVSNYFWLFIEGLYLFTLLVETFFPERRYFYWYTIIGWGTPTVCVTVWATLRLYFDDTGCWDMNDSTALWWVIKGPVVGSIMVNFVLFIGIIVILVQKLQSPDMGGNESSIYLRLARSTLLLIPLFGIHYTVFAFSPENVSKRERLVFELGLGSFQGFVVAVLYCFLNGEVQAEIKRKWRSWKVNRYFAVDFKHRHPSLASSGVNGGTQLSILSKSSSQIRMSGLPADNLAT
Procedure: In order to determine the potency of peptide antagonists at the PAC1 receptor, functional cAMP accumulation assays using LANCE Ultra cAMP assay kit to measure the agonist and antagonist activity of PAC1 peptides were used. SHSY-5Y (human neuroblastoma cell line) and RG-2 (rat glioma cell line) cells endogenously express human and rat PAC1 receptors, respectively. Agonist activity of PAC1 peptides was tested by incubating with SHSY-5Y at 2,000 cells per well or RG-2 at 5,000 cells per well for 15 minutes at room temperature. PAC1 receptor agonist PACAP38 or maxadilan was included as a positive control. The reaction was stopped by adding detection mixture, europium (Eu) chelate-labeled cAMP tracer and cAMP-specific monoclonal antibodies labeled with the ULight™ dye, to all wells followed by a 60-minute incubation at room temperature. The assay plates were then read on an EnVision instrument at an emission wavelength of 665 and 615 nm and data were analyzed using Genedata Screener or GraphPad Prism software. A similar procedure was used in the antagonist assays by using a fixed concentration of PAC1 agonist. The concentrations of agonists were chosen based on their ECK) values at PAC1 receptors in SHSY-5Y or RG-2 cells. SHSY-5Y or RG-2 cells were added into 96-well half-area white plates. Serially diluted PAC1 peptides at ten concentrations were added and incubated for 30 minutes at room temperature. PAC1 agonist at EC80 concentration was then added and further incubated for 15 minutes at room temperature. The reaction was stopped by adding detection mixture to all wells followed by a 60-minute incubation at room temperature. The assay plates were read and analyzed the same way as that of agonist assay. Cells, agonists, and PAC1 peptides were prepared in freshly made assay buffer (F-12, 0.5 mM IBMX, 0.1 or 0.4% BSA (pH 7.4)). Detection mixture was made by mixing a 1/50 dilution of the Eu-cAMP tracer stock solution in cAMP Detection Buffer and a 1/150 dilution of the ULight-anti-cAMP stock solution in cAMP Detection Buffer. Europium (Eu) chelate-labeled cAMP tracer, cAMP-specific monoclonal antibodies labeled with the ULight™ dye, BSA, and detection buffer were provided in LANCE Ultra cAMP Kit from PerkinElmer

Molecule: CDATCQFRKAIDDCDRQAHHSNVPGSVFKACMKQKKKEWKAG-NH2 (disulfide 1-5, 14-31) [SEQ ID NO 163]
- inhibition of maxadilan-induced increase in DBF (PAC1): statistically significant inhibition
- IC50 (rat PAC1 receptor): 0.01 to 1 nM
- IC50 (human PAC1 receptor): 0.01 to 1 nM

Molecule: CDATCQFRKAIDDCVKQAHHSNVPGSVFKACMKQKKKEFKAG-NH2 (disulfide 1-5, 14-31) [SEQ ID NO 179]
- inhibition of MIIBF (dermal blood flow) (PAC1): statistically significant inhibition
- IC50 (rat PAC1 receptor): 0.01 to 1 nM
- IC50 (human PAC1 receptor): 0.01 to 1 nM

Molecule: CC[C@H](C)[C@H](NC(=O)[C@H](C)NC(=O)[C@H](CCCCN)NC(=O)[C@H](CCCNC(=N)N)NC(=O)[C@H](Cc1ccccc1)NC(=O)[C@H](CCC(N)=O)NC(=O)[C@@H]1CSSC[C@H](N)C(=O)N[C@@H](CC(=O)O)C(=O)N[C@@H](C)C(=O)N[C@@H]([C@@H](C)O)C(=O)N1)C(=O)N[C@@H](CC(=O)O)C(=O)N[C@@H](CC(=O)O)C(=O)N[C@H]1CSSC[C@@H](C(=O)N[C@@H](CCSC)C(=O)N[C@@H](CCCCN)C(=O)N[C@@H](CCC(N)=O)C(=O)N[C@@H](CCCCN)C(=O)N[C@@H](CCCCN)C(=O)N[C@@H](CCCCN)C(=O)N[C@@H](CCC(=O)O)C(=O)N[C@@H](Cc2ccccc2)C(=O)N[C@@H](CCCCN)C(=O)N[C@@H](C)C(N)=O)NC(=O)C(C)(C)NC(=O)[C@H](CCCCN)NC(=O)[C@H](Cc2ccccc2)NC(=O)[C@H](C(C)C)NC(=O)[C@H](CO)NC(=O)CNC(=O)[C@@H]2CCCN2C(=O)[C@H](C(C)C)NC(=O)[C@H](CC(N)=O)NC(=O)[C@H](CO)NC(=O)[C@H](Cc2c[nH]cn2)NC(=O)[C@H](Cc2c[nH]cn2)NC(=O)[C@H](C)NC(=O)[C@H](CCC(N)=O)NC(=O)[C@H](CCCCN)NC(=O)[C@H](CCC(N)=O)NC1=O [SEQ ID NO 250]
- inhibition of MIIBF (dermal blood flow) (PAC1): statistically significant inhibition
- IC50 (rat PAC1 receptor): 0.01 to 1 nM
- IC50 (human PAC1 receptor): 1 to 100 nM

Molecule: GCDATCQFRKAIDDCQKQAHHSNVPGSVFKACMKQKKKEFKAG-NH2 (disulfide 2-6, 15-32) [SEQ ID NO 181]
- inhibition of MIIBF (dermal blood flow) (PAC1): statistically significant inhibition
- IC50 (rat PAC1 receptor): 0.01 to 1 nM
- IC50 (human PAC1 receptor): 1 to 100 nM

Molecule: CC[C@H](C)[C@H](NC(=O)[C@H](C)NC(=O)[C@H](CCCCN)NC(=O)[C@H](CCCNC(=N)N)NC(=O)[C@H](Cc1ccccc1)NC(=O)[C@H](CCC(N)=O)NC(=O)[C@@H]1CSSC[C@H](N)C(=O)N[C@@H](CC(=O)O)C(=O)N[C@@H](C)C(=O)N[C@@H]([C@@H](C)O)C(=O)N1)C(=O)N[C@@H](CC(=O)O)C(=O)N[C@@H](CC(=O)O)C(=O)N[C@H]1CSSC[C@@H](C(=O)N[C@@H](CCSC)C(=O)N[C@@H](CCCCN)C(=O)N[C@@H](CCC(N)=O)C(=O)N[C@@H](CCCCN)C(=O)N[C@@H](CCCCN)C(=O)N[C@@H](CCCCN)C(=O)N[C@@H](CCC(=O)O)C(=O)N[C@@H](Cc2c[nH]c3ccccc23)C(=O)N[C@@H](CCCCN)C(=O)N[C@@H](C)C(=O)NCC(N)=O)NC(=O)[C@H](C)NC(=O)[C@H](CCCCN)NC(=O)[C@H](Cc2ccccc2)NC(=O)[C@H](C(C)C)NC(=O)[C@H](CO)NC(=O)[C@H](CO)NC(=O)[C@H](Cc2c[nH]cn2)NC(=O)[C@H](Cc2ccc(O)cc2)NC(=O)[C@H](C)NC(=O)[C@H](CCC(N)=O)NC(=O)[C@H](CCCNC(=N)N)NC(=O)[C@H](C)NC1=O [SEQ ID NO 65] (H-CDATCQFRKAIDDCARQAYHSSVFKACMKQKKKEWKAG-NH2; disulfide 1-5, 14-27)
- inhibition of maxadilan-induced increase in DBF (PAC1): statistically significant inhibition
- IC50 (rat PAC1 receptor): 0.01 to 1 nM
- IC50 (human PAC1 receptor): 0.01 to 1 nM

Molecule: SCDATCQFRKAIDDCQKQAHHSNVPGSVFKACMKQKKKEFKAG-NH2 (disulfide 2-6, 15-32) [SEQ ID NO 183]
- inhibition of MIIBF (dermal blood flow) (PAC1): statistically significant inhibition
- IC50 (rat PAC1 receptor): 0.01 to 1 nM
- IC50 (human PAC1 receptor): 1 to 100 nM

Molecule: CDATCQFRKAIDDCAKQAHHSNVPGSVFKACMKQKKKEFKAG-NH2 (disulfide 1-5, 14-31) [SEQ ID NO 180]
- inhibition of MIIBF (dermal blood flow) (PAC1): statistically significant inhibition
- inhibition of maxadilan-induced increase in DBF (PAC1): statistically significant inhibition
- IC50 (rat PAC1 receptor): 0.01 to 1 nM
- IC50 (human PAC1 receptor): 0.01 to 1 nM

Molecule: C#CC[C@@H]1NC(=O)[C@H](CCC(N)=O)NC(=O)[C@H](CCCCN)NC(=O)[C@H](CCC(N)=O)NC(=O)[C@@H](NC(=O)[C@H](CC(=O)O)NC(=O)[C@H](CC(=O)O)NC(=O)[C@@H](NC(=O)[C@H](C)NC(=O)[C@H](CCCCN)NC(=O)[C@H](CCCNC(=N)N)NC(=O)[C@H](Cc2ccccc2)NC(=O)[C@H](CCC(N)=O)NC(=O)[C@@H]2CSSC[C@H](N)C(=O)N[C@@H](CC(=O)O)C(=O)N[C@@H](C)C(=O)N[C@@H]([C@@H](C)O)C(=O)N2)[C@@H](C)CC)CSSC[C@@H](C(=O)N[C@@H](CCSC)C(=O)N[C@@H](CCCCN)C(=O)N[C@@H](CCC(N)=O)C(=O)N[C@@H](CCCCN)C(=O)N[C@@H](CCCCN)C(=O)N[C@@H](CCCCN)C(=O)N[C@@H](CCC(=O)O)C(=O)N[C@@H](Cc2ccccc2)C(=O)N[C@@H](CCCCN)C(=O)N[C@@H](C)C(=O)NCC(N)=O)NC(=O)[C@H](C)NC(=O)[C@H](CCCCN)NC(=O)[C@H](Cc2ccccc2)NC(=O)[C@H](C(C)C)NC(=O)[C@H](CO)NC(=O)CNC(=O)[C@@H]2CCCN2C(=O)[C@H](C(C)C)NC(=O)[C@H](CC(N)=O)NC(=O)[C@H](CO)NC(=O)[C@H](Cc2c[nH]cn2)NC(=O)[C@H](Cc2c[nH]cn2)NC1=O [compound 32]
- IC50 (rat PAC1 receptor): 0.01 to 1 nM
- IC50 (human PAC1 receptor): 0.01 to 1 nM

Molecule: CDATCQFRKAIDDCAWFAMHSNVPGSVFKACMKQKKKEFKAG-NH2 (disulfide 1-5, 14-31) [compound 90]
- IC50 (rat PAC1 receptor): 0.01 to 1 nM
- IC50 (human PAC1 receptor): 0.01 to 1 nM
